Laboratory results reported in ChEMBL document CHEMBL1130970, “Design and synthesis of a water-soluble taxol analogue: taxol-sialyl conjugate” (Bioorg Med Chem Lett, 1998).
pIC50: −log10 of the molar value. In brackets after ≈: the same amount, converted by molar mass.

Key:
A-427 [1] = test: Inhibitory concentration in human lung carcinoma A427 cell line; assay type: functional, cell-based
[2] = Solubility was determined; assay type: physicochemical
Sus scrofa = organism: Sus scrofa; test: Concentration that induces microtubule assembly (tubulin obtained from porcine brain) by 50% in the absence of GTP; assay type: functional
A-427 [3] = test: Inhibitory concentration in human lung carcinoma A427/VCR cell line; assay type: functional, cell-based

pIC50 (A-427 [1])	solubility [2] [mg/mL]	pIC50 (A-427 [3])	SMILES	ED50 (Sus scrofa) [nM]
7.00	28 (≈ 21.2 mM)	6.00	CC(=O)NC1C(O)CC(OCCOCCOCCNC(=O)O[C@H]2C[C@H]3OC[C@@]3(OC(C)=O)C3[C@H](OC(=O)c4ccccc4)[C@]4(O)C[C@H](OC(=O)[C@H](O)[C@@H](NC(=O)c5ccccc5)c5ccccc5)C(C)=C([C@@H](OC(C)=O)C(=O)[C@@]32C)C4(C)C)(C(=O)O)OC1[C@H](O)[C@@H](O)CO (stereo not given in full)	3860
–	–	–	CC(=O)O[C@H]1C(=O)[C@@]2(C)[C@H]([C@H](OC(=O)c3ccccc3)[C@]3(O)C[C@H](OC(=O)[C@H](O)[C@@H](NC(=O)c4ccccc4)c4ccccc4)C(C)=C1C3(C)C)[C@]1(OC(C)=O)CO[C@@H]1C[C@@H]2O [PACLITAXEL]	860
